What was measured:
[1] = tested on: C. glutomicum strain derived from ATCC 13032 by evolutionary engineering; assay: Metabolic activity after NH4-oAB and Na-oAB addition, batch cultivation in 1 L bioreactors (Example 2); format: cell-based, Corynebacterium glutomicum; conditions: 40 mL of 500 g/L oAB stock solution added at 7 h and 24 h; FIG. 2
Method: Both bioreactors: addition of 36 g/L glucose (added as stock solution) after 7.5 h and 24.5 h to prevent a glucose limitation.
A C. glutomicum strain derived from ATCC 13032 was used to compare the metabolic activity after NH4-oAB and Na-oAB addition during the cultivation. This strain was derived from Corynebacterium glutomicum ATCC 13032 by evolutionary engineering in order to increase its resistance against oAB. It was not further genetically modified. Thus it was not capable of oAB-production.

C. glutomicum ATCC 13032 = assay: Metabolic activity after NH4-oAB and Na-oAB addition, batch cultivation in 1 L bioreactors (Example 3, FIG. 3); format: cell-based; conditions: for biomass accumulation after addition: 40 mL of 500 g/L oAB stock solution added after 6.4 h and 23.6 h, FIG. 3
Source text: From this it follows that the toxicity of oAB on C. glutomicum ATCC 13032 in presence of high sodium concentrations is reduced as compared to the toxicity in presence of high ammonium concentrations.

[2] = tested on: modified C. glutamicum production strain; conditions: for decrease of OTR signal after addition: 292 mmol salt (70 mL stock solution) added after 64 h, Na-oAB added before (4 x 20 mL of 500 g/L); for final dry weight concentration: after a cultivation time of 91 hours, salt added after 64 h in the presence of oAB
[3] = tested on: modified C. glutaomicum production strain; assay: Evaluation of the maximum tolerable oAB concentration, batch cultivation in 1 L bioreactor (Example 1); format: cell-based, Corynebacterium glutaomicum
Method: FIG. 1: Evaluation of the maximum tolerable oAB concentration during batch cultivation in a 1 L lab-scale bioreactor with a modified C. glutaomicum production strain.
The maximum tolerable oAB concentration in the presence of sodium ions in the medium was tested with a modified C. glutaomicum production strain. This strain was derived from Corynebacterium glutaomicum ATCC 13032 by evolutionary engineering in order to increase its resistance against oAB. This strain was then genetically modified to make it capable of oAB-production and comprised the following modifications. The incorporated modifications have the effect of reduced expression of the trpD gene, encoding anthranilate phosphoribosyl transferase, knock out of gene ppc, encoding PEP Carboxylase, constitutive overexpression of heterologous aroG^D146N and trpEG^540F genes from E. coli, encoding feedback resistant DAHP synthase and anthranilate synthase, respectively, constitutive overexpression of the gene aroL from E. coli, encoding shikimate kinase.
Glucose was added as stock solution after 40 h, 48 h, 63 h, 65 and 71.5 h to prevent a glucose limitation.

## N.Nc1ccccc1C(=O)O [NH4-oAB]
[1]
  OTR signal after addition: constant OTR signal
  biomass concentration after addition: reduced biomass accumulation
C. glutomicum ATCC 13032
  biomass accumulation after addition: growth inhibition after 24 h
C. glutomicum ATCC 13032; according to FIG. 3
  o-aminobenzoate concentration at which cell growth (dry weight) stops: > 50 g/L
C. glutomicum ATCC 13032; according to FIG. 3, concentration not including the mass of the cation
  o-aminobenzoate concentration at which the metabolic activity of bacterial cells (OTR) is limited: more than 25 g/L

## Cl.N [NH4Cl]
[2]
  decrease of OTR signal after addition: about 20%
  final dry weight concentration: 6.8 g/L

## Nc1ccccc1C(=O)[O-].[Na+] [Na-oAB]
[1]
  OTR signal after addition: continued to increase
  biomass concentration after addition: continued to increase
C. glutomicum ATCC 13032
  biomass accumulation after addition: biomass accumulation continued

## [Cl-].[Na+] [NaCl]
[2]
  decrease of OTR signal after addition: no effect
  final dry weight concentration: 7.8 g/L

## Nc1ccccc1C(=O)O [oAB, 2-aminobenzoic acid]
[3]; oAB added stepwise as sodium salt (dissolved with NaOH at pH 7), pH 7 controlled with NH4OH, 30° C.
  oAB concentration at which an increase in biomass concentration was still observed: 80 g/L
[3]; oAB increased from 80 g/L after 71 h, added as sodium salt (dissolved with NaOH at pH 7)
  oAB concentration resulting in a decrease of the metabolic activity (declining OTR signal) and no further increase in biomass: 100 g/L

From patent publication US20200263213A1, “METHODS FOR INCREASING THE TOLERANCE OF MICROBIAL CELLS TOWARDS ANTHRANILIC ACID BY LIMITING THE AMOUNT OF AMMONIA IN THE CULTURE MEDIUM” (priority 2017, published 2020)
